One assay has as its system liver mitochondria. Nature of the assay: Rate of liver mitochondrial oxygen consumption (JO2) of treated Wistar rats. The assay is classed as in vivo, rat. To be noted: high dose 250 μg/kg BW/day, various substrates, vs placebo. On the procedure:
(§1) The major part of the liver and the red part of each quadriceps were rinsed, and chopped into isolation medium (250 mM sucrose, 20 mM Tris-HCl and 1 mM EGTA-Tris, pH 7.4). Nuclei and cell debris were removed by centrifugation at 800 g for 10 min. Mitochondria were then isolated from the supernatant by spinning twice at 8,000 g for 10 minutes. The mitochondrial pellet was resuspended in 0.5 ml of isolation buffer and kept on ice. Mitochondrial protein was measured by the bicinchoninic acid method (Pierce, Rockford, Ill.). The final mitochondrial suspensions were maintained on ice and were used for measurements of oxygen consumption rate.
(§2) The rate of mitochondrial oxygen consumption (JO2) was measured at 30° C. in an incubation chamber with a Clark-type O2 electrode filled with 2 ml of incubation medium (125 mM KCl, 10 mM Pi-Tris, 20 mM Tris-HCl, 0.1 mM EGTA, pH 7.2). All measurements were performed using mitochondria (1.0 or 0.2 mg mitochondrial protein/ml for liver and skeletal muscle) incubated either with various substrates: glutamate/malate (5 mM/2.5 mM) and succinate (5 mM), alone or in combination, palmitoyl carnitine (55 μM) and octanoyl carnitine (100 μM). For each substrate, JO2 was recorded in the presence of the substrate alone (State 2) and following the addition of 1 mM ADP (state 3). Oligomycin (1.25 μg/mg protein) was added to the mitochondrial suspension to determine the non-phosphorylating respiratory rate (state 4). The incubation medium was constantly stirred with a built-in electromagnetic stirrer and bar flea. The efficiency of the mitochondrial oxidative phosphorylation was assessed by the state 3/state 4 ratio which measures the degree of control imposed on oxidation by phosphorylation (respiratory control ratio, RCR).

Assay [1] has as its system Wistar rats. The experiment in a line: Body composition (adipose tissues, skeletal muscles, brown adipose tissue) of Wistar rats. The assay is classed as in vivo, rat. To be noted: three weeks, vs placebo. From the text:
(§3) At the end of the experimental period, animals were sacrificed by decapitation, in order to avoid the well-known effects of general anesthetics on mitochondrial metabolism. Blood samples were immediately collected and plasma was frozen for subsequent determination of serum metabolites and hormones. Liver, muscles and fat depots were quickly excised and weighed. Liver median lobe was rapidly freeze-clamped. Muscles (plantaris, soleus and gastrocnemius) were frozen in isopentane precooled in liquid nitrogen. Mesenteric fat consisted of adipose tissue surrounding the gastro-intestinal tract from the gastro-oesophageal sphincter to the end of the rectum with special care taken in distinguishing and removing the pancreas. Retroperitoneal fat pad was taken as the distinct depot behind each kidney along the lumbar muscles. Epididymal fat consisted of adipose tissue on top of the epididymis. For subcutaneous depot measurement, a rectangular piece of skin was taken on the right side of each animal from the median line of the abdomen between the spine and the right hip to the first rib. Interscapular brown adipose tissue was removed and dissected free from adjacent muscles and white adipose tissue. The heart ventricles, the right kidney and the spleen were also excised, weighed and frozen.

Assay [2] relates to Wistar rats. Nature of the assay: Indirect calorimetry (energy expenditure, respiratory quotient) of Wistar rats. The format is in vivo, rat. To be noted: 25 μg/100 g BW pellet, vs placebo. From the text: Energy expenditure as well as the nature of substrate oxidized (carbohydrates or lipids) were investigated by indirect calorimetry. This principle is based on the determinations of CO2 release (VCO2) and O2 consumption (VO2) by each animal. It assumes that O2 is entirely involved in substrate oxidation in the respiratory chain (leading to water production) while CO2 release is related to substrate decarboxylation (in the Krebs' cycle). These measurements allow assessing energy expenditure (EE) and respiratory quotient ([…], RQ). EE represent the absolute energy dissipation during rest and activity. RQ is a relative measurement indicating the ratio of carbohydrate versus lipid involved in oxidative pathway. A ratio of 1.0 indicates exclusive carbohydrate oxidation while a ratio of 0.7 indicates exclusive lipid oxidation. Each value between these two extreme values indicates the relative proportion of each substrate (of note protein oxidation was not evaluated). As an example, RQ approaches 0.7 during fasting, indicating lipid oxidation, conversely after feeding RQ increases close to 1 indicating carbohydrate oxidation resulting from food intake and blood insulin rise. Likewise, animals fed high-carbohydrate diets have higher RQs than those fed high-fat diets.
The indirect calorimetry system (Panlab, Barcelona, Spain) consists of cages, pumps, flow controllers, valves, and analyzers. It is computer-controlled in order to sequentially measure O2 and CO2 concentrations as well as air flow in four separate cages allowing four simultaneous determinations. Rats are isolated in one of the four metabolic chambers, and room air is used as a reference to monitor ambient O2 and CO2 concentrations periodically.
At predefined intervals, the computer sends a signal to store differential CO2 and O2 concentrations, flow rate, allowing computing VCO2, VO2, RQ, and EE (Weir equation) with data acquisition hardware (Metabolism, Panlab, Barcelona, Spain).

The subject of assay [3] is Wistar rats. The experiment in a line: Plasma concentrations of glucose, triglycerides, cholesterol, FFA and HDL in Wistar rats. The format is in vivo, rat. As to conditions: day of sacrifice, vs placebo.
Excerpt: These measurements were done on venous blood of the rats the day of the sacrifice.
as §3
Glucose and 3-hydroxybutyrate (3-HB) were measured enzymatically and non esterified fatty acid (NEFA) by colorimetric assay (Wako Chemicals).
Triglycerides and cholesterol were measured by classical routine automate apparatus.

The subject of assay [4] is Wistar rats. Nature of the assay: Growth rate (body weight) and food intake of Wistar rats. The assay is classed as in vivo, rat. On the procedure: Adult male rat bred in the animal room facilities of Laboratory of Fundamental and Applied Bioenergetics (Wistar strain) or purchased from Charles-River Laboratories, Domaine des oncins, L'ARBRESLE France [(genetically obese normoglycemic (Zucker or Fa/Fa) or diabetic (ZDF)] were caged individually in stainless steel hanging cages and maintained in a 22° C., 50±10% relative humidity and 12 h:12 h light:dark environment. All animals were fed ad libitum with a standard rat chow (Safe A04, Villemoisson, France) and tap water. Body mass and food intake were recorded twice/thrice a week and fresh food was provided at the same time to ensure minimal disturbance to the animals' food behavior.
Eight-week old rats (300 g±10 g) were anesthetized by simultaneous intraperitoneal injection of diazepam 4 mg/kg and ketamine 100 mg/kg. In order to maintain body temperature during the surgery (10 min), animals were placed on a warm blanket. After interscapular shaving, a small incision of 0.5 cm of the skin allows the subcutaneous implantation of a small pellet (containing rT3 or 3′,3-T2) with a 10-gauge precision trochar. The pellets, manufactured by Innovative Research of America (Sarasota, Fla., USA) are constituted of a biodegradable matrix that effectively and continuously release the active product in the animal.
[…] (reverseT3) or 3-3′ diiodothyronine (3-3′ T2) were used at different doses (5, 0.5, or 0.1 mg/pellet) were implanted in order to provide a continuous and constant drug delivery over 60 days (which represents 25 μg, 2.5 μg or 0.5 μg/day/100 g BW).
Wistar rats were treated with rT3 hormone by a daily intraperitoneal injection (IP) (25 μg/100 g BW), a daily sub-cutaneous injection (SC) (25 μg/100 g BW), or a per os administration included in the rat food (25 μg/100 g BW). The continuous and constant administration was performed by using a pellet (25 μg/100 g BW).
However the role of the administration site was further investigated by comparing continuous administration of rT3 by osmotic pump implanted either subcutaneously or intraperitonally with the reference treatment administered by sub-cutaneous pellets. Wistar rats were treated for 21 days with placebo, sub-cutaneous pellet or sub-cutaneous or intraperitoneal osmotic pumps. rT3 was administered continuously (2.5 μg/100 g).
Wistar rats were treated by a continuous and constant administration of low doses of rT3 by 3 different methods of administration: • a sub-cutaneous pellet, • an osmotic pump placed under the skin, and • an osmotic pump placed in the peritoneal cavity.

Another assay deals with muscle mitochondria. Nature of the assay: Rate of muscle mitochondrial oxygen consumption (JO2) of treated Wistar rats. The format is in vivo, rat. As to conditions: 250 μg/kg BW/day, vs placebo. On the procedure: as §1, §2
Assay [5] concerns normal rats receiving a high-fat diet. To be noted: daily peritoneal injection, vs untreated rats; cited from earlier work.
In assay [6] the test system is nuclear receptors of the thyroid hormones, TRα-1 and TRβ-1. To be noted: literature statements; cited from earlier work.
Where [7] appears, read: high dose 25 μg/100 g BW pellet.
[8] abbreviates: Wistar rats, high dose 250 μg/kg BW/day.

The text below walks through data of patent publication US20110064773A1, “PHARMACEUTICAL COMPOSITIONS COMPRISING A THYROID HORMON AND THEIR THERAPEUTIC USE” (UNIVERSITE JOSEPH FOURIER, priority 2007, published 2011).

Molecules are shown by their SMILES.

In the case of `N[C@@H](Cc1ccc(Oc2ccc(O)c(I)c2)c(I)c1)C(=O)O` [3,3′-T2, 3′,3-diiodothyronine], in the assay on liver mitochondria, the “Liver mitochondrial respiratory rate, non-phosphorylating (state 4, oligomycin)” value is listed as “much higher as compared to placebo” and the “Liver mitochondrial respiratory rate, phosphorylating (state 3, ADP)” value is on record as “very significant increased respiratory rate”. Besides, the Fat mass result in the assay on Wistar rats [1] (250 μg/kg BW pellet) was “significantly decreased”. Also, in the assay with Wistar rats [1] (setting [7]), the “Brown adipose tissue mass” value is “significantly increased” and the “Muscle mass (lean body mass)” value is “not affected”. In the assay with Wistar rats [2], the “Respiratory quotient (RQ) during the day (diurnal period)” value is given as “lower than that of placebo” and the “Respiratory quotient (RQ) during the night” value is “almost the same as those described for rT3”. Moreover, the Cholesterol plasmatic concentration entry with Wistar rats [3] (Wistar rats, 250 μg/kg BW/day) is on record as “significantly lower”. Moreover, in the assay on Wistar rats [3] (setting [8]), the “Plasma free fatty acids (FFA)” value is on record as “higher” and the Triglycerides plasmatic concentration result is reported as “significantly lower”. In the assay with Wistar rats [3] (normal (non diabetic) Wistar rats, 250 μg/kg BW/day), the “Fasting glucose plasmatic concentration” value is given as “slightly increased”. The “Food intake immediately after the pellet” value in the assay with Wistar rats [4] (25 μg/100 g BW pellet, from day 4 until day 7) is listed as “decrease”. The “Food intake (appetite)” value with Wistar rats [4] (high dose 25 μg/100 g BW pellet, 21 days, vs placebo) was “higher value as compared to those of placebo animals”. Also, the “Growth rate (body weight)” value in the assay with Wistar rats [4] (high dose 25 μg/100 g BW, subcutaneous pellet, 21 days, vs placebo) was “did not show any weight gain”. Moreover, in the assay with muscle mitochondria, the “Muscle mitochondrial respiration, non-phosphorylating (state 4)” value was “failed to substantially affect” and the “Muscle mitochondrial respiration, phosphorylating (state 3)” value is “failed to substantially affect”.
Take `NC(Cc1cc(I)c(Oc2ccc(O)cc2)c(I)c1)C(=O)O` (centres unmarked) [3,5-T2]: in assay [5], the Fat deposit result is given as “less fat deposit” and the Weight gain result is “gained less weight”.
Regarding `N[C@@H](Cc1cc(I)c(Oc2ccc(O)c(I)c2)c(I)c1)C(=O)O` [T3], the “Binding to the nuclear (TH) receptors” value in assay [6] was “binds very efficiently”.
On to `N[C@@H](Cc1cc(I)c(Oc2cc(I)c(O)c(I)c2)c(I)c1)C(=O)O` [T4, thyroxine], for which, in assay [6], the “Binding to the nuclear (TH) receptors” value is “binds less efficiently”.
